Measured values from patent US20120309739A1, “AKT / PKB INHIBITORS” (ALMAC DISCOVERY LIMITED, priority 2009, published 2012).
Counter-ions that a name gives are not always drawn.

Assays:
Type in all cases: biochemical
AKT3 = molecular target: T1, AKT3 (Homo sapiens, UniProt Q9Y243); test: AKT Kinase Assay (IMAP fluorescent polarisation) vs AKT3; details: activated AKT3, FAM Crosstide substrate
T1 construct: purchased SignalChem
Description: (§1) Testing of the compounds was performed using an AKT Kinase Assay:
(§2) Activated AKT isoforms 1, 2 and 3 were assayed utilising a 5′ FAM Crosstide (Seq. GRPRTSSFAEG-OH). The extent of kinase phosphorylation was determined by fluorescent polarisation using IMAP progressive binding reagent, which introduces binding beads which allow the reagent to specifically bind to phosphate residues via covalent co-ordination complex bonds.
(§3) iMAP binding solution stops Crosstide/kinase interaction and specifically binds phosphorylated substrates. The degree of phosphorylation is determined by fluorescent polarisation (excitation 485 nm; emission 528 nm) or the reduction in speed of rotation of the excited substrate.
(§4) The following materials were used in the assay: • a) Activated AKT isoforms (SignalChem.) dissolved in Complete Reaction buffer at a pre-determined concentration selected so that the assay was carried out in the linear range. • b) AKT substrate peptide: FAM Crosstide (R7110) Molecular Devices, diluted in complete reaction buffer. • c) iMAP Progressive Screening Express Kit (R8127) Molecular Devices • d) Complete Reaction Buffer containing 0.1% BSA, 10 mM Tris-HCl, 10 mM MgCl2, 0.05% NaN3 and 0.01% phosphate free BSA, 1 mM DTT • e) Progressive Binding Solution containing 75% Buffer A, 25% Buffer B and low volume Binding Reagent which contains the binding entity for the assay • f) ATP diluted in complete reaction buffer • g) Black polystyrene 384 well assay plates (Nunc). • h) Biotek Synergy 4 Hybrid Plate reader.
(§5) 50 μl of test compound was dissolved in DMSO (Sigma Aldrich) and serially diluted in complete reaction buffer to give a fourteen point half log dose response and plated into 384 well black plates. The compound was incubated at room temperature with activated AKT isoform ([…]) at the pre-determined concentration, for 45 minutes.
(§6) […] of ATP solution mixed with 2.5 μl of AKT substrate peptide (FAM Crosstide (R7110) Molecular Devices) were dispensed into each well and the plate centrifuged at 1000 rpm for 20 seconds to ensure homogenous mixing of reagents. The reaction mix was incubated in the dark for one hour at room temperature.
(§7) The kinase reaction was stopped by the addition of Progressive Binding Solution and the mixture allowed to equilibrate for one hour in the dark, at room temperature.
(§8) The fluorescent polarisation generated in each well was determined using a […] Synergy 4 Hybrid plate reader. In brief, each reaction solution was excited at 485 nm with the emission measured at 528 nm in both the parallel and perpendicular pathway.
(§9) The polarisation value generated in each well was calculated by Gen5 software (Biotek) and the % inhibition of kinase activity compared to vehicle control was calculated via GraphPad Prism. IC50 values for each compound were calculated by non-linear regression analysis using Prism software.
(§10) All plates were internally controlled by two methods. Firstly, by calculating the signal:noise ratio; based on kinase polarisation without inhibitor and polarisation generated by complete reaction buffer in the absence of activated kinase. Secondly by determining IC50 values generated by known inhibitors of the AKT isoforms.

AKT2 = molecular target: T2, AKT2 (Homo sapiens, UniProt P31751); test: AKT Kinase Assay (IMAP fluorescent polarisation) vs AKT2; details: activated AKT2, FAM Crosstide substrate
T2 construct: purchased SignalChem
Description: as §1, §2, §3, §4, §5, §6, §7, §8, §9, §10

AKT1 = molecular target: T3, AKT1 (Homo sapiens, UniProt P31749); test: AKT Kinase Assay (IMAP fluorescent polarisation) vs AKT1; details: activated AKT1, FAM Crosstide substrate
T3 construct: purchased SignalChem
Description: as §1, §2, §3, §4, §5, §6, §7, §8, §9, §10

T3 sequence (P31749 whole entry): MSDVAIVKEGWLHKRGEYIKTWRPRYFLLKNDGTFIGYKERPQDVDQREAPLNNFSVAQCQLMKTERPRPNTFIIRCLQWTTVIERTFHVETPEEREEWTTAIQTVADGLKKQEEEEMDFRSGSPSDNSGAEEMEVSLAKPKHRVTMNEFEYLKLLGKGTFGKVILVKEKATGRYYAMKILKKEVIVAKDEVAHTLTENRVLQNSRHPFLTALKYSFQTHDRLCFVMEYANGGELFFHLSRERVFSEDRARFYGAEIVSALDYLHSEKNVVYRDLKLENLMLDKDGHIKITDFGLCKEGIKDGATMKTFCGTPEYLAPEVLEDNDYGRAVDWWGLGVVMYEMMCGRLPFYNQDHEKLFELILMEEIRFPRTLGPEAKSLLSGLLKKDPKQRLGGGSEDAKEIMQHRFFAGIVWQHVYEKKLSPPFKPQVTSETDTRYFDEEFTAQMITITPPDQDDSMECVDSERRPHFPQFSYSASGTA
T1 sequence (Q9Y243 whole entry): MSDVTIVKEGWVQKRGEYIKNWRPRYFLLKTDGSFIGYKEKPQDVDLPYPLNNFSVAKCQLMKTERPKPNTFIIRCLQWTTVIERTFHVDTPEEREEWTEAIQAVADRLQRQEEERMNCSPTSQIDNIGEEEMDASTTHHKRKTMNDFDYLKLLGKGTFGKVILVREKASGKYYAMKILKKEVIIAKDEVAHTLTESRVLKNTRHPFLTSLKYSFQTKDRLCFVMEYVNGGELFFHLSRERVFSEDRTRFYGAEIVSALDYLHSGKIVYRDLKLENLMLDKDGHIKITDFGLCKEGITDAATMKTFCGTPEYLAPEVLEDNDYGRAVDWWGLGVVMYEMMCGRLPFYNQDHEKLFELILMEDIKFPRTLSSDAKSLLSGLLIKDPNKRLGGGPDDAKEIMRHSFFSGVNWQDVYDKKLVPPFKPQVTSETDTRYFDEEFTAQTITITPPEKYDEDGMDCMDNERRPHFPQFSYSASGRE
T2 sequence (P31751 whole entry): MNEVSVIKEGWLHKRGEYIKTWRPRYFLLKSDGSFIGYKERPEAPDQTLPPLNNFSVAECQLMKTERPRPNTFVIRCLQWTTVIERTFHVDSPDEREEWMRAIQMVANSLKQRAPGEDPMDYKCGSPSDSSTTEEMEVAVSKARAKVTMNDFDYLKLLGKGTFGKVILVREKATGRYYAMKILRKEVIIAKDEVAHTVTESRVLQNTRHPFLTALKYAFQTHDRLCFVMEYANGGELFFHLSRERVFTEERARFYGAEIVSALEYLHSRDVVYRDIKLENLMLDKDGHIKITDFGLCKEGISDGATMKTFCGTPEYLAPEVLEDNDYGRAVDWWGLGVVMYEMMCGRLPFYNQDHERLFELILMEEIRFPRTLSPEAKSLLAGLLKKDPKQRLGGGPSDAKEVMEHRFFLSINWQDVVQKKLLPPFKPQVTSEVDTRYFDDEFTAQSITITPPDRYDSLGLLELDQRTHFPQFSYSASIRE

IC50 (AKT3)	IC50 (AKT2)	IC50 (AKT1)	SMILES
> 10 µM	0.1 to 1 µM	≤ 0.1 µM	COc1nc(OC)c2c(-c3ccccc3)c(-c3ccc(C4(N)CCC4)cc3)oc2n1 [Example 49, 1-(4-(2,4-Dimethoxy-5-phenylfuro[2,3-d]pyrimidin-6-yl)phenyl)cyclobutanamine]
> 10 µM	0.1 to 1 µM	1 to 10 µM	NC1CCN(c2ncc3c(-c4ccccc4)c(-c4ccc(C5(N)CCC5)cc4)oc3n2)CC1 [Example 50, 1-(6-(4-(1-Aminocyclobutyl)phenyl)-5-phenylfuro[2,3-d]pyrimidin-2-yl)piperidin-4-amine]
> 10 µM	0.1 to 1 µM	0.1 to 1 µM	NC1(c2ccc(-c3oc4nc(NCCO)ncc4c3-c3ccccc3)cc2)CCC1 [Example 51, 2-((6-(4-(1-Aminocyclobutyl)phenyl)-5-phenylfuro[2,3-d]pyrimidin-2-yl)amino)ethanol]
> 10 µM	0.1 to 1 µM	1 to 10 µM	NC1(c2ccc(-c3oc4nc(N5CCOCC5)ncc4c3-c3ccccc3)cc2)CCC1 [Example 52, 1-(4-(2-Morpholino-5-phenylfuro[2,3-d]pyrimidin-6-yl)phenyl)cyclobutanamine]
> 10 µM	0.1 to 1 µM	0.1 to 1 µM	NC1(c2ccc(-c3oc4nc(N5CCNCC5)ncc4c3-c3ccccc3)cc2)CCC1 [Example 53, 1-(4-(5-Phenyl-2-(piperazin-1-yl)furo[2,3-d]pyrimidin-6-yl)phenyl)cyclobutanamine]
> 10 µM	0.1 to 1 µM	≤ 0.1 µM	NC1(c2ccc(-c3oc4nc(OCCO)ncc4c3-c3ccccc3)cc2)CCC1 [Example 54, 2-((6-(4-(1-Aminocyclobutyl)phenyl)-5-phenylfuro[2,3-d]pyrimidin-2-yl)oxy)ethanol]
> 10 µM	0.1 to 1 µM	≤ 0.1 µM	CNc1ncc2c(-c3ccccc3)c(-c3ccc(C4(N)CCC4)cc3)oc2n1 [Example 55, 6-(4-(1-Aminocyclobutyl)phenyl)-N-methyl-5-phenylfuro[2,3-d]pyrimidin-2-amine]
1 to 10 µM	≤ 0.1 µM	0.1 to 1 µM	Cn1c(N2CC[C@H](O)C2)nc2oc(-c3ccc(C4(N)CCC4)cc3)c(-c3ccccc3)c2c1=O [Example 56, (S)-6-(4-(1-aminocyclobutyl)phenyl)-2-(3-hydroxypyrrolidin-1-yl)-3-methyl-5-phenylfuro[2,3-d]pyrimidin-4(3H)-one]
1 to 10 µM	≤ 0.1 µM	0.1 to 1 µM	Cn1c(N2CC[C@@H](O)C2)nc2oc(-c3ccc(C4(N)CCC4)cc3)c(-c3ccccc3)c2c1=O [Example 57, (R)-6-(4-(1-Aminocyclobutyl)phenyl)-2-(3-hydroxypyrrolidin-1-yl)-3-methyl-5-phenylfuro[2,3-d]pyrimidin-4(3H)-one]
1 to 10 µM	0.1 to 1 µM	0.1 to 1 µM	Cn1c(N2CCCC2)nc2oc(-c3ccc(C4(N)CCC4)cc3)c(-c3ccccc3)c2c1=O [Example 58, 6-(4-(1-Aminocyclobutyl)phenyl)-3-methyl-5-phenyl-2-(pyrrolidin-1-yl)furo[2,3-d]pyrimidin-4(3H)-one hydrochloride]
1 to 10 µM	≤ 0.1 µM	0.1 to 1 µM	Cn1c(N2CCC(O)CC2)nc2oc(-c3ccc(C4(N)CCC4)cc3)c(-c3ccccc3)c2c1=O [Example 59, 6-(4-(1-Aminocyclobutyl)phenyl)-2-(4-hydroxypiperidin-1-yl)-3-methyl-5-phenylfuro[2,3-d]pyrimidin-4(3H)-one hydrochloride]
> 10 µM	0.1 to 1 µM	1 to 10 µM	CNC(=O)CNc1nc2oc(-c3ccc(C4(N)CCC4)cc3)c(-c3ccccc3)c2c(=O)n1C [Example 60, 2-((6-(4-(1-Aminocyclobutyl)phenyl)-3-methyl-4-oxo-5-phenyl-3,4-dihydrofuro[2,3-d]pyrimidin-2-yl)amino)-N-methylacetamide hydrochloride]
1 to 10 µM	0.1 to 1 µM	0.1 to 1 µM	Cn1c(N2CC(O)C2)nc2oc(-c3ccc(C4(N)CCC4)cc3)c(-c3ccccc3)c2c1=O [Example 61, 6-(4-(1-Aminocyclobutyl)phenyl)-2-(3-hydroxyazetidin-1-yl)-3-methyl-5-phenylfuro[2,3-d]pyrimidin-4(3H)-one]
1 to 10 µM	0.1 to 1 µM	0.1 to 1 µM	C[C@@H](O)CNc1nc2oc(-c3ccc(C4(N)CCC4)cc3)c(-c3ccccc3)c2c(=O)n1C [Example 62, (R)-6-(4-(1-Aminocyclobutyl)phenyl)-2-((2-hydroxypropyl)amino)-3-methyl-5-phenylfuro[2,3-d]pyrimidin-4(3H)-one]
> 10 µM	0.1 to 1 µM	0.1 to 1 µM	Cn1c(NCC(N)=O)nc2oc(-c3ccc(C4(N)CCC4)cc3)c(-c3ccccc3)c2c1=O [Example 63, 2-((6-(4-(1-Aminocyclobutyl)phenyl)-3-methyl-4-oxo-5-phenyl-3,4-dihydrofuro[2,3-d]pyrimidin-2-yl)amino)acetamide]
1 to 10 µM	0.1 to 1 µM	≤ 0.1 µM	Cn1c(NCCO)nc2oc(-c3ccc(C4(N)CCC4)cc3)c(-c3ccccc3)c2c1=O [Example 64, 6-(4-(1-Aminocyclobutyl)phenyl)-2-(2-hydroxyethylamino)-3-methyl-5-phenylfuro[2,3-d]pyrimidin-4(3H)-one hydrochloride]
1 to 10 µM	0.1 to 1 µM	0.1 to 1 µM	CNc1nc2oc(-c3ccc(C4(N)CCC4)cc3)c(-c3ccccc3)c2c(=O)n1C [Example 65, 6-(4-(1-Aminocyclobutyl)phenyl)-3-methyl-2-(methylamino)-5-phenylfuro[2,3-d]pyrimidin-4(3H)-one hydrochloride]
> 10 µM	0.1 to 1 µM	0.1 to 1 µM	Cn1cnc2oc(-c3ccc(C4(N)CCC4)cc3)c(-c3ccccc3)c2c1=O [Example 66, 6-(4-(1-Aminocyclobutyl)phenyl)-3-methyl-5-phenylfuro[2,3-d]pyrimidin-4(3H)-one]
0.1 to 1 µM	≤ 0.1 µM	0.1 to 1 µM	COCCn1c(SC)nc2oc(-c3ccc(C4(N)CCC4)cc3)c(-c3ccccc3)c2c1=O [Example 67, 6-(4-(1-Aminocyclobutyl)phenyl)-3-(2-methoxyethyl)-2-(methylthio)-5-phenylfuro[2,3-d]pyrimidin-4(3H)-one, HCl]
0.1 to 1 µM	0.1 to 1 µM	0.1 to 1 µM	CNc1nc(SC)nc2oc(-c3ccc(C4(N)CCC4)cc3)c(-c3ccccc3)c12 [Example 68, 6-(4-(1-Aminocyclobutyl)phenyl)-N-methyl-2-(methylthio)-5-phenylfuro[2,3-d]pyrimidin-4-amine, HCl]
> 10 µM	0.1 to 1 µM	1 to 10 µM	CNc1nc2oc(-c3ccc(C4(N)CCC4)cc3)c(-c3ccccc3)c2c(=O)n1CCOC [Example 69, 6-(4-(1-Aminocyclobutyl)phenyl)-3-(2-methoxyethyl)-2-(methylamino)-5-phenylfuro[2,3-d]pyrimidin-4(3H)-one, HCl]
> 10 µM	1 to 10 µM	1 to 10 µM	CN(C)c1nc(NCCO)nc2oc(-c3ccc(C4(N)CCC4)cc3)c(-c3ccccc3)c12 [Example 70, 2-(6-(4-(1-Aminocyclobutyl)phenyl)-4-(dimethylamino)-5-phenylfuro[2,3-d]pyrimidin-2-ylamino)ethanol, HCl]
> 10 µM	1 to 10 µM	1 to 10 µM	NC1(c2ccc(-c3oc4nc(NCCO)nc(N5CCOCC5)c4c3-c3ccccc3)cc2)CCC1 [Example 71, 2-((6-(4-(1-Aminocyclobutyl)phenyl)-4-morpholino-5-phenylfuro[2,3-d]pyrimidin-2-yl)amino)ethanol]
1 to 10 µM	0.1 to 1 µM	0.1 to 1 µM	Cc1nc(NCCO)nc2oc(-c3ccc(C4(N)CCC4)cc3)c(-c3ccccc3)c12 [Example 72, 2-((6-(4-(1-Aminocyclobutyl)phenyl)-4-methyl-5-phenylfuro[2,3-d]pyrimidin-2-yl)amino)ethanol]
